The results in this text go back to US10357537B2, “Cyclotides as immunosuppressive agents” (priority 2011, dated 2019).

Where two headings read alike, the source gives them in different places. Bridge positions count the residues as written; N and C are the ends. Peptide text beside a SMILES is read from it.

Series [1] concerns activated human primary PBMC. Kind of series: Anti-proliferative CFSE cell division assay on anti-CD3/CD28-activated PBMC. Conditions: for cytotoxicity in PBMC proliferation assay: at 14 μM; for IC50: read-out: IC50 (μM) ± STDEV, inhibition of PBMC proliferation, PBMCs, anti-CD3/28 mAbs, 72 h, n.a. = not active. The method, then: Human peripheral blood mononuclear cells (PBMC) were isolated from the blood of healthy adult donors obtained from the Blood Transfusion Centre (University Medical Center, Freiburg, Germany). Venous blood was centrifuged on a LymphoPrep™ gradient (density: 1.077 g/cm^3, 20 min, 500×g, 20° C.; Progen, Heidelberg, Germany). Afterwards cells were washed twice with medium and cell viability and concentration was determined using the trypan blue exclusion test. PBMC were cultured in RPMI 1640 medium supplemented with 10% heat-inactivated fetal calf serum (PAA, Coelbe, Germany), 2 mM L-glutamine, 100 U/mL penicillin and […] (all from Invitrogen, Karlsruhe, Germany). The cells were cultured at 37° C. in a humidified incubator with a 5% CO2/95% air atmosphere. All experiments conducted on human material were approved by the Ethics committee of the University of Freiburg.
(§1) After cultivation, the cells were assessed in bioassays as described in the text.
For cell proliferation and cell division tracking analysis PBMC were harvested and washed twice in cold PBS and resuspended in PBS at a concentration of 5×10^6 cells/mL. Cells were incubated for 10 min at 37° C. with carboxyfluorescein diacetate succinimidyl ester (CFSE; 5 μM: Sigma-Aldrich, Taufkirchen, Germany). The staining reaction was stopped by washing twice with complete medium. Afterwards, the cell division progress was analysed using flow cytometric analysis.
(§2) The anti-proliferative effect of cyclotide mutants/variants was tested according to Example 5. […] Afterwards the cell proliferation was assessed by analysing cell division using flow cytometric-based histogram analysis.

Series [2] relates to activated human primary PBMC. The method, then: as §1
The levels of apoptosis were determined using the annexin V-FITC apoptosis detection kit (eBioscience, Frankfurt, Germany) according to the manufacturer's instructions. After annexin V staining, propidium iodide solution (PI; eBioscience) was added and the cells were incubated in the dark, followed by a flow cytometric analysis to determine the amount of apoptosis and necrosis. CPT (30 μg/mL) and Triton-X 100 (0.5%) was used as positive controls for apoptosis and necrosis, respectively.
Cellular apoptotic and necrotic hallmarks were measured by using inter-nucleosomal DNA fragmentation (subG1^+ cells) assay and phosphatidylserine surface analysis through a single and combinatory annexin V and propidium iodide staining. This double staining process allowed the discrimination between viable (annexin^−/PI^−), apoptotic (annexin^+/PI^− and annexin^+/PI^+) or necrotic (annexin^−/PI^+) cells.

Series [3] has as its system CD3 purified T-lymphocytes. Description: Anti-proliferative CFSE assay on magnetic-purified CD3+ lymphocytes. The note with it: for IC50: read-out: IC50 (μM) ± STDEV, inhibition of CD3 purified T-lymphocyte proliferation, CD3 purified lymphocytes, anti-CD3/28 mAbs, 72 h. Here is the method:
as §2

On to `CC[C@H](C)[C@H](NC(=O)CN)C(=O)NCC(=O)N[C@@H](C)C(=O)N[C@H](C(=O)N[C@@H](CC(C)C)C(=O)N[C@@H](CCCCN)C(=O)N[C@H](C(=O)N[C@@H](CC(C)C)C(=O)N[C@H](C(=O)N[C@H](C(=O)NCC(=O)N[C@@H](CC(C)C)C(=O)N1CCC[C@H]1C(=O)N[C@@H](C)C(=O)N[C@@H](CC(C)C)C(=O)N[C@H](C(=O)N[C@@H](CO)C(=O)N[C@@H](Cc1c[nH]c2ccccc12)C(=O)N[C@H](C(=O)N[C@@H](CCCCN)C(=O)N[C@@H](CCCNC(=N)N)C(=O)N[C@@H](CCCCN)C(=O)N[C@@H](CCCNC(=N)N)C(=O)N[C@@H](CCC(N)=O)C(=O)N[C@@H](CCC(N)=O)C(N)=O)[C@@H](C)CC)[C@@H](C)CC)[C@@H](C)O)[C@@H](C)O)C(C)C)C(C)C` [melittin], for which, in series [1] (CFSE, flow cytometry, extract 50-100 μg/mL, cyclotides 1.8-14 μM, melittin 0.05-1.6 μM), the “cell division / proliferation of activated PBMC (in words)” value is “decrease of proliferating PBMC at 1.6 μM”. The induction of necrosis result in series [2] (kalata B1 14 μM vs untreated control, Triton-X 100, melittin high concentrations) is on record as “slight effect on necrosis induction at high concentrations”. The induction of apoptosis entry in series [2] (kalata B1 1.8-14 μM, CPT 30 μg/mL, melittin up to 1.6 μM) is “mainly due to the induction of apoptosis”.

Consider Triton-X 100, for which the induction of necrosis result in series [2] is listed as “significantly increased the fractions of these cells”.

For the molecule `CC(C)C[C@@H]1NC(=O)[C@H](CCCCN)NC(=O)[C@H](CC(N)=O)NC(=O)[C@H](CCCNC(=N)N)NC(=O)[C@H]([C@@H](C)O)NC(=O)[C@@H]2CSSC[C@@H]3NC(=O)[C@H]([C@@H](C)O)NC(=O)CNC(=O)CNC(=O)[C@H](C(C)C)NC(=O)[C@@H]4CSSC[C@H](NC(=O)[C@H](CCCCN)NC(=O)[C@H](CSSC[C@H](NC(=O)[C@H](C(C)C)NC(=O)[C@@H]5CCCN5C1=O)C(=O)NCC(=O)N[C@@H](CCC(=O)O)C(=O)N[C@@H]([C@@H](C)O)C(=O)N4)NC(=O)CNC(=O)[C@@H]1CCCN1C(=O)[C@H]([C@@H](C)O)NC(=O)[C@H](CC(N)=O)NC3=O)C(=O)N[C@@H](CO)C(=O)N[C@@H](Cc1c[nH]c3ccccc13)C(=O)N1CCC[C@H]1C(=O)N[C@@H](C(C)C)C(=O)N2` [T20K, G1K, Kalata T20K, G1K] (cyclo(CGETCVGGTCNTPGCKCSWPVCTRNKLPV); disulfide 1-15, 5-17, 10-22), the “cytotoxicity in CD3 purified lymphocyte proliferation assay” value in series [3] (at 14 μM) was “(cytotoxic)”. In addition, the IC50 in series [3] turned out to be 1.1 ± 0.7 µM. The “cytotoxicity in PBMC proliferation assay” value in series [1] was “(cytotoxic)”; in series [1] (listed as T20K+G1K), “cytotoxic”.

For `CC[C@@H](C)[C@H]1NC(=O)[C@H]2CCCN2C(=O)[C@@H](Cc2c[nH]c3ccccc23)NC(=O)[C@@H]([C@H](C)O)NC(=O)[C@H]2CSSC[C@H]3NC(=O)[C@@H]([C@H](C)O)NC(=O)[C@@H](CCC(=O)O)NC(=O)CNC(=O)[C@H]4CSSC[C@@H](NC(=O)CNC(=O)[C@H]5CCCN5C(=O)[C@@H]([C@H](C)O)NC(=O)[C@@H](CC(N)=O)NC(=O)[C@@H](CSSC[C@@H](NC1=O)C(=O)N[C@H]([C@H](C)O)C(=O)N[C@H](CCCNC(=N)N)C(=O)N[C@H](CC(=O)O)C(=O)NCC(=O)N[C@H](CC(C)C)C(=O)N1CCC[C@@H]1C(=O)N[C@H](C(C)C)C(=O)N4)NC(=O)[C@@H]([C@H](C)O)NC(=O)CNC(=O)CNC(=O)[C@@H](Cc1ccccc1)NC3=O)C(=O)N[C@H](CO)C(=O)N2` [all-D kalata B2, D-kalataB2], the IC50 in series [3] is 2.9 ± 0.4 µM; in series [1] (cyclotides 1.8-14 μM) it was 2.3 ± 0.8 µM.

Consider `CC[C@H](C)[C@@H]1NC(=O)[C@@H]2CCCN2C(=O)[C@H](Cc2c[nH]c3ccccc23)NC(=O)[C@H]([C@@H](C)O)NC(=O)[C@@H]2CSSC[C@@H]3NC(=O)[C@H]([C@@H](C)O)NC(=O)[C@H](CCC(=O)O)NC(=O)CNC(=O)[C@@H]4CSSC[C@H](NC(=O)CNC(=O)[C@@H]5CCCN5C(=O)[C@H]([C@@H](C)O)NC(=O)[C@H](CC(N)=O)NC(=O)[C@H](CSSC[C@H](NC1=O)C(=O)N[C@@H]([C@@H](C)O)C(=O)N[C@@H](CCCNC(=N)N)C(=O)N[C@@H](CC(=O)O)C(=O)NCC(=O)N[C@@H](CC(C)C)C(=O)N1CCC[C@H]1C(=O)N[C@@H](C(C)C)C(=O)N4)NC(=O)[C@H]([C@@H](C)O)NC(=O)CNC(=O)CNC(=O)[C@H](Cc1ccccc1)NC3=O)C(=O)N[C@@H](CO)C(=O)N2` [Kalata B2] (cyclo(CFGGTCNTPGCSCTWPICTRDGLPVCGET); disulfide 1-13, 6-18, 11-26), for which the IC50 in series [3] amounted to 0.6 ± 0.02 µM; in series [1] (cyclotides 1.8-14 μM), 0.2 ± 0.1 µM.
